Laboratory results reported in the supplement of paper PMC10307832.

Key:
Assay in all cases: relative viability (nuclei count vs DMSO), 5 days (fraction); higher = more cells survive
BAY61-3606 + Dasatinib = compound: COC1=C(C=C(C=C1)C2=CC3=NC=CN3C(=N2)NC4=C(C=CC=N4)C(=O)N)OC [BAY61-3606] + Cc1nc(Nc2ncc(C(=O)Nc3c(C)cccc3Cl)s2)cc(N2CCN(CCO)CC2)n1 [Dasatinib] (partner 0.075 µM)
Method in brief: (§1)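 Cells from lung cancer lines were seeded into 1536-well plates and, one day later, dosed by pin tool. Treatments were either a single drug or a fixed dose of an anchor drug with five library-drug doses (not always all listed) in √10 steps. After 5 days, nuclei were stained in a one-step fixation (final 0.05% Triton X-100, 1% formaldehyde, 1 ug/ml Hoechst) and counted on 4× images, and relative viability is the treated-to-vehicle nuclei ratio, as the median of duplicate plates.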

Doxorubicin + Trametinib = compound: COc1cccc2c1C(=O)c1c(O)c3c(c(O)c1C2=O)C[C@@](O)(C(=O)CO)C[C@@H]3O[C@H]1C[C@H](N)[C@H](O)[C@H](C)O1 [Doxorubicin] + CC(=O)Nc1cccc(-n2c(=O)n(C3CC3)c(=O)c3c(Nc4ccc(I)cc4F)n(C)c(=O)c(C)c32)c1 [Trametinib] (partner 0.02 µM)
Method in brief: as §1

Doxorubicin + Foretinib = compound: COc1cccc2c1C(=O)c1c(O)c3c(c(O)c1C2=O)C[C@@](O)(C(=O)CO)C[C@@H]3O[C@H]1C[C@H](N)[C@H](O)[C@H](C)O1 [Doxorubicin] + COc1cc2c(Oc3ccc(NC(=O)C4(C(=O)Nc5ccc(F)cc5)CC4)cc3F)ccnc2cc1OCCCN1CCOCC1 [Foretinib] (partner 0.25 µM)
Method in brief: as §1

Doxorubicin + Pictilisib = compound: COc1cccc2c1C(=O)c1c(O)c3c(c(O)c1C2=O)C[C@@](O)(C(=O)CO)C[C@@H]3O[C@H]1C[C@H](N)[C@H](O)[C@H](C)O1 [Doxorubicin] + CS(=O)(=O)N1CCN(Cc2cc3nc(-c4cccc5[nH]ncc45)nc(N4CCOCC4)c3s2)CC1 [Pictilisib] (partner 1 µM)
Method in brief: as §1

Cell Line	relative viability (BAY61-3606 + Dasatinib; first compound 0.02 µM)	relative viability (BAY61-3606 + Dasatinib; first compound 0.06325 µM)	relative viability (BAY61-3606 + Dasatinib; first compound 0.2 µM)	relative viability (BAY61-3606 + Dasatinib; first compound 0.6325 µM)	relative viability (BAY61-3606 + Dasatinib; first compound 2 µM)	relative viability (Doxorubicin + Trametinib; first compound 0.001 µM)	relative viability (Doxorubicin + Trametinib; first compound 0.003162 µM)	relative viability (Doxorubicin + Trametinib; first compound 0.01 µM)	relative viability (Doxorubicin + Trametinib; first compound 0.03162 µM)	relative viability (Doxorubicin + Trametinib; first compound 0.1 µM)	relative viability (Doxorubicin + Foretinib; first compound 0.001 µM)	relative viability (Doxorubicin + Foretinib; first compound 0.003162 µM)	relative viability (Doxorubicin + Foretinib; first compound 0.01 µM)	relative viability (Doxorubicin + Foretinib; first compound 0.03162 µM)	relative viability (Doxorubicin + Foretinib; first compound 0.1 µM)	relative viability (Doxorubicin + Pictilisib; first compound 0.001 µM)	relative viability (Doxorubicin + Pictilisib; first compound 0.003162 µM)	relative viability (Doxorubicin + Pictilisib; first compound 0.01 µM)	relative viability (Doxorubicin + Pictilisib; first compound 0.03162 µM)	relative viability (Doxorubicin + Pictilisib; first compound 0.1 µM)
LK-2	0.334	0.217	0.347	0.368	0.379	0.798	0.936	0.598	0.578	0.699	1.2	1.32	0.904	0.826	1.41	0.498	0.457	0.534	0.498	0.442
NCI-H1563	0.477	0.406	0.508	0.421	0.428	–	–	–	–	–	0.876	0.878	0.728	0.58	0.502	0.585	0.602	0.62	0.541	0.532
COR-L23	0.609	0.548	0.504	0.467	0.316	0.54	0.526	0.545	0.254	0.149	0.964	1.06	0.918	0.64	0.221	0.928	1.04	0.651	0.199	0.121
ABC-1	0.658	0.653	0.557	0.553	0.476	–	–	–	–	–	1.48	1.13	1.02	0.676	0.339	0.849	0.642	0.566	0.317	0.356
NCI-H522	0.838	0.792	0.975	0.832	0.747	0.706	0.79	0.76	0.708	0.777	–	–	–	–	–	–	–	–	–	–
SW 1573	0.535	0.416	0.43	0.373	0.203	0.463	0.589	0.187	0.102	0.067	0.921	1.19	0.829	0.451	0.503	0.512	0.46	0.424	0.332	0.258
SW 900	0.84	0.559	0.706	0.457	0.303	–	1.01	0.75	0.623	1.03	0.929	1.06	0.727	0.727	0.958	–	–	–	–	–
A549	–	–	–	–	–	–	–	–	–	–	0.911	1.1	0.927	0.684	0.29	0.49	0.355	0.201	0.0558	0.0454
A-427	0.722	0.681	0.673	0.765	0.647	0.782	0.708	0.743	0.534	0.418	0.981	1.13	0.97	1.02	1.05	0.664	0.818	0.723	0.636	0.791
NCI-H1915	0.313	0.312	0.344	0.314	0.272	0.306	0.31	0.313	0.312	0.303	1.1	1.11	1.02	1.06	1.1	0.854	1.01	0.954	1.06	1.03
LOU-NH91	0.538	0.495	0.513	0.538	0.489	–	0.724	0.766	0.766	0.654	0.742	0.879	0.944	0.931	0.839	–	0.516	0.564	0.465	0.419
NCI-H1734	0.582	0.386	0.409	0.331	0.272	0.689	0.724	0.641	0.611	0.634	0.854	0.989	0.934	0.68	0.769	0.464	0.498	0.389	0.321	0.267
NCI-H1703	–	–	–	–	–	–	–	–	–	–	–	0.304	0.3	–	0.24	0.258	0.227	0.189	0.177	0.136
Calu-6	–	–	–	–	–	–	–	–	–	–	0.945	1.01	0.828	0.619	0.362	0.919	0.799	0.516	0.263	0.172
HCC-44	–	–	–	–	–	0.987	1.11	1.05	1.05	1.07	–	–	–	–	–	0.722	0.66	0.58	0.531	0.527
NCI-H1648	–	–	–	–	–	0.474	0.429	0.555	0.492	0.541	–	–	–	–	–	–	–	–	–	–
EBC-1	–	–	–	–	–	–	–	–	–	–	0.114	0.1	0.0884	0.0952	0.0885	0.388	0.405	0.295	0.195	0.11
NCI-H2342	0.297	0.32	0.319	0.311	0.367	0.901	0.729	0.954	0.685	0.724	1.08	1.08	1.06	0.791	1.17	–	–	–	–	–
NCI-H1299	–	–	–	–	–	–	–	–	–	–	1.1	1.11	1.1	1.16	1.05	0.799	0.762	0.699	0.273	0.196
IA-LM	–	–	–	–	–	–	–	–	–	–	1.04	1.13	1.2	1.1	1.06	0.287	0.341	0.254	0.0936	0.0491
NCI-H1792	0.858	0.76	0.809	0.83	0.535	0.393	0.556	0.456	0.392	0.422	–	–	–	–	–	0.325	0.287	0.309	0.209	0.251
